# Key:
# [1] = system: Tyrosine-protein kinase ABL1 (Homo sapiens), P00519 [F317I]; assay: Binding affinity to human non-phosphorylated ABL1 F317I mutant (S229 to K512 residues) expressed in mammalian expression system assessed as residual binding level at 10 uM by Kinomescan method relative to control
# [2] = system: Mast/stem cell growth factor receptor Kit (Homo sapiens), P10721 [UNDEFINED MUTATION]; assay: Binding affinity to human partial length KIT V559D/V654 double mutant (Y545 to D952 residues) expressed in bacterial expression system assessed as residual binding level at 10 uM by Kinomescan method relative to control
# [3] = target: Mitogen-activated protein kinase kinase kinase kinase 1 (Homo sapiens) (UniProt Q92918); assay: Binding affinity to wild-type human full length HPK1 (M1 to R799 residues) expressed in bacterial expression system assessed as residual binding level at 10 uM by Kinomescan method relative to control
# [4] = target: Aurora kinase C (Homo sapiens) (UniProt Q9UQB9); assay: Binding affinity to wild-type human full length AURKC (M1 to S275 residues) expressed in bacterial expression system assessed as residual binding level at 10 uM by Kinomescan method relative to control
# Chain of Aurora kinase C (Homo sapiens) (Q9UQB9 whole entry, the tested form may be a part): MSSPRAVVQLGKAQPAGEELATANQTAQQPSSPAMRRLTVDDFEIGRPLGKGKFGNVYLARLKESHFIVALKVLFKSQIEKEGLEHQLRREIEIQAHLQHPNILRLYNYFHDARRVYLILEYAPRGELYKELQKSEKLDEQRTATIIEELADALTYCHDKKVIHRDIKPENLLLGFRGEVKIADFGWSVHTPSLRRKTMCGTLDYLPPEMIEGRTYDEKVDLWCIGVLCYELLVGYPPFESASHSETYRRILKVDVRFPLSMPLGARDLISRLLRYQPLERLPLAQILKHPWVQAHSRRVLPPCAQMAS
# [5] = target: Mitogen-activated protein kinase kinase kinase kinase 3 (Homo sapiens) (UniProt Q8IVH8); assay: Binding affinity to wild-type human partial length MAP4K3 (M1 to D301 residues) expressed in bacterial expression system assessed as residual binding level at 10 uM by Kinomescan method relative to control
# [6] = target: Serine/threonine-protein kinase 3 (Homo sapiens) (UniProt Q13188); assay: Binding affinity to wild-type human partial length MST2 (D17 to E318 residues) expressed in bacterial expression system assessed as residual binding level at 10 uM by Kinomescan method relative to control
# [7] = target: Serine/threonine-protein kinase Nek5 (Homo sapiens) (UniProt Q6P3R8); assay: Binding affinity to wild-type human partial length NEK5 (M1 to M279 residues) expressed in bacterial expression system assessed as residual binding level at 10 uM by Kinomescan method relative to control
# [8] = target: Cyclin-dependent kinase 11B (Homo sapiens) (UniProt P21127); assay: Binding affinity to wild-type human partial length CDC2L1 (P353 to G692 residues) expressed in bacterial expression system assessed as residual binding level at 10 uM by Kinomescan method relative to control
# Chain of Cyclin-dependent kinase 11B (Homo sapiens) (P21127 whole entry, the tested form may be a part): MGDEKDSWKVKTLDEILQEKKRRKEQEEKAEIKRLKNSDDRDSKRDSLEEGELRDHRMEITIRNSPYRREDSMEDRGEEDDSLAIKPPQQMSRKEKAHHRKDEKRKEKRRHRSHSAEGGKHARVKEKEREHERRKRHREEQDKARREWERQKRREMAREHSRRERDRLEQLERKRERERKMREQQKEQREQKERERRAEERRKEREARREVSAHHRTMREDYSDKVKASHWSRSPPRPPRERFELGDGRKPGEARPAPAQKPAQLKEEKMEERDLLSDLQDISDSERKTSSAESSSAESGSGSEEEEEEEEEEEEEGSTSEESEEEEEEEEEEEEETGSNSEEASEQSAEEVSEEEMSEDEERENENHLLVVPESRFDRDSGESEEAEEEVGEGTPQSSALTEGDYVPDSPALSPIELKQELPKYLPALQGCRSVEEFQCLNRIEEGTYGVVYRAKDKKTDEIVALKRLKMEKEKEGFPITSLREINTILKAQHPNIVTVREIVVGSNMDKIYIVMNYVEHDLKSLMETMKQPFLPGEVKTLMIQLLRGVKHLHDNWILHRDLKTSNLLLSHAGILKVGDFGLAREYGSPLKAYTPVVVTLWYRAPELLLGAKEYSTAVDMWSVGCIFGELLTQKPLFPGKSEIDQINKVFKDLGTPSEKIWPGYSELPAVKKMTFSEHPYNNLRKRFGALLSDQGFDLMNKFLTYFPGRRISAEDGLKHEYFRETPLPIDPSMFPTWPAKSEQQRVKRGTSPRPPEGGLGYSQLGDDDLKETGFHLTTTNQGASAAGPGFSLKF
# [9] = target: Mitogen-activated protein kinase kinase kinase 5 (Homo sapiens) (UniProt Q99683); assay: Binding affinity to wild-type human partial length ASK1 (E648 to S964 residues) expressed in bacterial expression system assessed as residual binding level at 10 uM by Kinomescan method relative to control
# [10] = system: Epidermal growth factor receptor (Homo sapiens), P00533 [UNDEFINED MUTATION]; assay: Binding affinity to human partial length EGFR L747-T751del/Sins mutant expressed in bacterial expression system assessed as residual binding level at 10 uM by Kinomescan method relative to control
# [11] = target: Phosphatidylinositol 3-kinase C2 domain-containing subunit gamma (Homo sapiens) (UniProt O75747); assay: Binding affinity to wild-type human partial length PIK3C2G (M1 to I1446 residues) expressed in mammalian expression system assessed as residual binding level at 10 uM by Kinomescan method relative to control
# Chain of Phosphatidylinositol 3-kinase C2 domain-containing subunit gamma (Homo sapiens) (O75747 whole entry, the tested form may be a part): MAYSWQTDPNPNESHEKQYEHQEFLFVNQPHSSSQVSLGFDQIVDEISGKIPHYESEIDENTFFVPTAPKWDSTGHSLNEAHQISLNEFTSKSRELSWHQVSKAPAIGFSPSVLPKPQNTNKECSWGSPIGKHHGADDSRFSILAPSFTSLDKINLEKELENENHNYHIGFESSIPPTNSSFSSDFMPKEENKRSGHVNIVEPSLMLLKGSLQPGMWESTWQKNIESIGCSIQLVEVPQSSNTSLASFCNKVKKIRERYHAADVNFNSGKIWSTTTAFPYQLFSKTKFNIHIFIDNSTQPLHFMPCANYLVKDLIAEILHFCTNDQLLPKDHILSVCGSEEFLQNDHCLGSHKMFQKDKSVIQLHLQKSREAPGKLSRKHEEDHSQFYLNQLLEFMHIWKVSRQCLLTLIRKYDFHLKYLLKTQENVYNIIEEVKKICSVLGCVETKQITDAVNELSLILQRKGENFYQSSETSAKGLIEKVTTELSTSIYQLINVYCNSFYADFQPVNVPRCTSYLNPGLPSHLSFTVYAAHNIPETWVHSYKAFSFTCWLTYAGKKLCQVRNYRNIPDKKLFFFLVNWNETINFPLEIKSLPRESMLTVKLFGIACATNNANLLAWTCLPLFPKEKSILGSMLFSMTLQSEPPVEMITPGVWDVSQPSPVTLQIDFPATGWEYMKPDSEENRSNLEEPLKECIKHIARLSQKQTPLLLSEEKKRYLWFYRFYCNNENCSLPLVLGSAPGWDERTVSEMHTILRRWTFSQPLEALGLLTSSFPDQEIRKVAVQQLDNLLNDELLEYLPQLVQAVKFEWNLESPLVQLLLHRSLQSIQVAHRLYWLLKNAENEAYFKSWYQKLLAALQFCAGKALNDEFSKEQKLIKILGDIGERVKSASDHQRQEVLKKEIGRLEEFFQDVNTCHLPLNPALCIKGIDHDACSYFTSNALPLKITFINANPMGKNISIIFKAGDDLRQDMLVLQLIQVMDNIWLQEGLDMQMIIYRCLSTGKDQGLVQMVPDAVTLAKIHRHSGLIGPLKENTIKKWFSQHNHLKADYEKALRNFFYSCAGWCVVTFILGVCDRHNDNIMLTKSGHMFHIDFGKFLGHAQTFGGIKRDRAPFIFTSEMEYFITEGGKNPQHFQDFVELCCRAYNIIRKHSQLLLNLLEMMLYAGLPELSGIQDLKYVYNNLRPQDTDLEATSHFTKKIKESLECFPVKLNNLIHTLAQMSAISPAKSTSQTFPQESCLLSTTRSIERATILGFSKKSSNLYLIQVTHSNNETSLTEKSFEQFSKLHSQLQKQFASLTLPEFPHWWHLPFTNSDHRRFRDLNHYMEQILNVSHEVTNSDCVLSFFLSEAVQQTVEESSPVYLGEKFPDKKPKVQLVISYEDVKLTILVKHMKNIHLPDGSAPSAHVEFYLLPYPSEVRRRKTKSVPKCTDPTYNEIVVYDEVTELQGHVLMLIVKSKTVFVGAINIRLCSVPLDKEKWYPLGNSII
# Acetylcholinesterase = Acetylcholinesterase (Homo sapiens, UniProt P22303); assay: Inhibition of human recombinant AChE using ATCh as substrate preincubated for 20 mins followed by substrate addition and measured for 3 mins by Ellman method
# [12] = target: Glycogen synthase kinase-3 (Sus scrofa, UniProt B2LUN4+I6LNT8)
# Description: Inhibition of native porcine brain GSK-3alpha/beta using GS-1 as substrate incubated for 30 mins in presence of [gamma-33P]ATP by liquid scintillation counting assay
# [13] = target: Bone morphogenetic protein receptor type-1B (Homo sapiens) (UniProt O00238); assay: Binding affinity to wild-type human partial length BMPR1B (D178 to L502 residues) expressed in mammalian expression system assessed as residual binding level at 10 uM by Kinomescan method relative to control
# [14] = target: Calcium/calmodulin-dependent protein kinase kinase 2 (Homo sapiens) (UniProt Q96RR4); assay: Binding affinity to wild-type human partial length CAMKK2 (D65 to V471 residues) expressed in bacterial expression system assessed as residual binding level at 10 uM by Kinomescan method relative to control
# [15] = target: Calcium/calmodulin-dependent protein kinase type 1B (Homo sapiens) (UniProt Q6P2M8); assay: Binding affinity to wild-type human partial length CAMK1B (W9 to A311 residues) expressed in mammalian expression system assessed as residual binding level at 10 uM by Kinomescan method relative to control
# [16] = target: Dual specificity protein kinase CLK1 (Homo sapiens) (UniProt P49759); assay: Binding affinity to wild-type human full length CLK1 (M1 to I484 residues) expressed in bacterial expression system assessed as residual binding level at 10 uM by Kinomescan method relative to control
# Chain of Dual specificity protein kinase CLK1 (Homo sapiens) (P49759 whole entry, looked up, the tested form may be a part): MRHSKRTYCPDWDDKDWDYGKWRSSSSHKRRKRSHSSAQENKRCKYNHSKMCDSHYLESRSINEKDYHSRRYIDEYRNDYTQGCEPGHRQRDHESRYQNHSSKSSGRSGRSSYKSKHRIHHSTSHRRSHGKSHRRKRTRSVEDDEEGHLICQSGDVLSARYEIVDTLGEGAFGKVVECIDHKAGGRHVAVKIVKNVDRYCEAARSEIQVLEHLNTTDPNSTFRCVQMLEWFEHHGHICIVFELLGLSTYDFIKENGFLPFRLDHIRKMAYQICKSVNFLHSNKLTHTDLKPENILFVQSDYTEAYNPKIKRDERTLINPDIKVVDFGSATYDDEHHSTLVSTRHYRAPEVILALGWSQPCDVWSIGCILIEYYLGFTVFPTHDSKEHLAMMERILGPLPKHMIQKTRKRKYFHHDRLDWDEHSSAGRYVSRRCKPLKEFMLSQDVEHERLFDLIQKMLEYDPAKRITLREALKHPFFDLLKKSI
# [17] = target: Ribosomal protein S6 kinase alpha-3 (Homo sapiens) (UniProt P51812); assay: Binding affinity to wild-type human partial length N-terminal RSK2 kinase domain 1 (M1 to D394 residues) expressed in mammalian expression system assessed as residual binding level at 10 uM by Kinomescan method relative to control
# [18] = target: Ribosomal protein S6 kinase alpha-4 (Homo sapiens) (UniProt O75676); assay: Binding affinity to wild-type human partial length C-terminal RPS6KA4 kinase domain 2 (M375 to T705 residues) expressed in mammalian expression system assessed as residual binding level at 10 uM by Kinomescan method relative to control
# Chain of Ribosomal protein S6 kinase alpha-4 (Homo sapiens) (O75676 whole entry, looked up, the tested form may be a part): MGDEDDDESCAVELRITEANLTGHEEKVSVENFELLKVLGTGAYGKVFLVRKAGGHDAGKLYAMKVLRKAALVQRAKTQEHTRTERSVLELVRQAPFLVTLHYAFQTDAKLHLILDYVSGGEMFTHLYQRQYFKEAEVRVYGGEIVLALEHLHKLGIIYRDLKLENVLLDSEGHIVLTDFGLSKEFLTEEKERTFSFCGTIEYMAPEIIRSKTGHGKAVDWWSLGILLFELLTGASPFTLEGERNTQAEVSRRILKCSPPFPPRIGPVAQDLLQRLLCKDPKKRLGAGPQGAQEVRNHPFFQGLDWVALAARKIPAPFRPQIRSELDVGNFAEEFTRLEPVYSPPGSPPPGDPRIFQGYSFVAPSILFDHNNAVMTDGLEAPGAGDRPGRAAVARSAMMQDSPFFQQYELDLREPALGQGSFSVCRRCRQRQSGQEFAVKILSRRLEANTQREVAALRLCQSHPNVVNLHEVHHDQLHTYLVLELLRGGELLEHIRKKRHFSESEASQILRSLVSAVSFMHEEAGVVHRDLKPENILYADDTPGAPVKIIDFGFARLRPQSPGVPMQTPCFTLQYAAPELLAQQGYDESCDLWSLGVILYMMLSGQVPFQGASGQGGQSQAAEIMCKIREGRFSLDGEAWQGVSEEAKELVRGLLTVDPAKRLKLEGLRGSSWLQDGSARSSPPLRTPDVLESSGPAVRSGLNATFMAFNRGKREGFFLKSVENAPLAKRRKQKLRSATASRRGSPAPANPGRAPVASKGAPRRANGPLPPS
# [19] = target: Myotonin-protein kinase (Homo sapiens) (UniProt Q09013); assay: Binding affinity to wild-type human partial length DMPK (V47 to V415 residues) expressed in bacterial expression system assessed as residual binding level at 10 uM by Kinomescan method relative to control
# [20] = target: Tyrosine-protein kinase JAK1 (Homo sapiens) (UniProt P23458); assay: Binding affinity to wild-type human partial length JAK1 JH2 pseudokinase domain (R537 to D855 residues) expressed in mammalian expression system assessed as residual binding level at 10 uM by Kinomescan method relative to control
# [21] = target: Serine/threonine-protein kinase MARK1 (Homo sapiens) (UniProt Q9P0L2); assay: Binding affinity to wild-type human partial length MARK1 (Q30 to T341 residues) expressed in bacterial expression system assessed as residual binding level at 10 uM by Kinomescan method relative to control
# Chain of Serine/threonine-protein kinase MARK1 (Homo sapiens) (Q9P0L2 whole entry, looked up, the tested form may be a part): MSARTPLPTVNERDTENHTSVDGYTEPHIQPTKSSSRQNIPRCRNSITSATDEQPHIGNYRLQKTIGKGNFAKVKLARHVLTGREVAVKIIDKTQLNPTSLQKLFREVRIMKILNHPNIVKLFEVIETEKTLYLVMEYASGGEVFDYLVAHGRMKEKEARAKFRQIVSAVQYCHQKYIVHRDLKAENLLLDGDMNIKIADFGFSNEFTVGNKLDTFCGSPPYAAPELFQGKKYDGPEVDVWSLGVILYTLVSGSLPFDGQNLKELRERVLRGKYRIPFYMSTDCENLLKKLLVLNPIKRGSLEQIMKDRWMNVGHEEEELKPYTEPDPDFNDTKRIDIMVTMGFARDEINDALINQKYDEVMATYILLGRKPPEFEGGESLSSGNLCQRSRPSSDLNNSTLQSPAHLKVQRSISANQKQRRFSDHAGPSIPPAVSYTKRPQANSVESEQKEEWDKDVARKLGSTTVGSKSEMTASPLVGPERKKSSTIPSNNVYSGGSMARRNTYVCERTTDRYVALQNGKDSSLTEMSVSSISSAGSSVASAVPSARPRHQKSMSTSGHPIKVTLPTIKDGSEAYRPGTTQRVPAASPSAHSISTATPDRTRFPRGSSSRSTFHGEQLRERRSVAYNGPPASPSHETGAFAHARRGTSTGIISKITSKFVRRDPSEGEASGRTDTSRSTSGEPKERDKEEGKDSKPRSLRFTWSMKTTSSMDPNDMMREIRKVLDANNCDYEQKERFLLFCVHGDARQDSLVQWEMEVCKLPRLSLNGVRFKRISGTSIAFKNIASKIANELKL
# [22] = target: Serine/threonine-protein kinase Nek10 (Homo sapiens) (UniProt Q6ZWH5); assay: Binding affinity to wild-type human partial length NEK10 (L488 to R809 residues) expressed in mammalian expression system assessed as residual binding level at 10 uM by Kinomescan method relative to control
# [23] = target: Serine/threonine-protein kinase 16 (Homo sapiens) (UniProt O75716); assay: Binding affinity to wild-type human partial length STK16 (G11 to I305 residues) expressed in bacterial expression system assessed as residual binding level at 10 uM by Kinomescan method relative to control
# Chain of Serine/threonine-protein kinase 16 (Homo sapiens) (O75716 whole entry, the tested form may be a part): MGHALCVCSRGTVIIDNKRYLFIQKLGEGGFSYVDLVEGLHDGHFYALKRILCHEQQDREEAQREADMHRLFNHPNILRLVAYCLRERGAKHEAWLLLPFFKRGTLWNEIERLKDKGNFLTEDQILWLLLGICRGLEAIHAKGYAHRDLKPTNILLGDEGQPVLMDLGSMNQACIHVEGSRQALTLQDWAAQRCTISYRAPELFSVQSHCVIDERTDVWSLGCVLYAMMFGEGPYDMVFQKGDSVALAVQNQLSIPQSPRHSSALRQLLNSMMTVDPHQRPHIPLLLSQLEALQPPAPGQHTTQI
# [24] = target: Vascular endothelial growth factor receptor 3 (Homo sapiens) (UniProt P35916); assay: Binding affinity to wild-type human partial length FLT4 (E821 to E1196 residues) expressed in bacterial expression system assessed as residual binding level at 10 uM by Kinomescan method relative to control
smiles,measurement,setting,value
O=C(Nc1cc(-c2cn(CCNc3c4c(nc5ccccc35)CCCC4)nn2)ccn1)Nc1cccc2c1C1CCCCN1C2=O (racemic),Activity,[1],100%
same,Activity,[2],38%
same,Activity,[3],12%
same,Activity,[4],13%
same,Activity,[5],21%
same,Activity,[6],21%
same,Activity,[7],82%
same,Activity,[8],99%
same,Activity,[9],80%
same,Activity,[10],75%
same,Activity,[11],44%
same,IC50,Acetylcholinesterase,11.4 nM
same,IC50,[12],16 nM
same,Activity,[13],25%
same,Activity,[14],18%
same,Activity,[15],100%
same,Activity,[16],4.5%
same,Activity,[17],1.7%
same,Activity,[18],69%
same,Activity,[19],18%
same,Activity,[20],36%
same,Activity,[21],50%
same,Activity,[22],2.5%
same,Activity,[23],1.9%
same,Activity,[24],2.7%

# From ChEMBL document CHEMBL4390652, “Design, biological evaluation and X-ray crystallography of nanomolar multifunctional ligands targeting simultaneously acetylcholinesterase and glycogen synthase kinase-3” (Eur J Med Chem, 2019)
